# From US12667098B2, “Ready to use plant treatment agent applicator, container and product” (UPL Corporation Limited, priority 2022, dated 2026)
# What was measured:
# Type in all cases: in vivo
# Conditions in all cases: 3 L/ha of glufosinate ammonium 18.5%
# [1] = test system: Broadleaf dock; experiment: Weed control efficacy of glufosinate applied with the applicator: broadleaf dock
# Source text: (§1) The rate of application was 3 L/ha of glufosinate ammonium 18.5%.
# [2] = test system: Field horsetail; experiment: Weed control efficacy of glufosinate applied with the applicator: field horsetail
# Source text: as §1
# [3] = test system: Barnyard grass; experiment: Weed control efficacy of glufosinate applied with the applicator: barnyard grass
# Source text: as §1
# [4] = test system: Water foxtail; experiment: Weed control efficacy of glufosinate applied with the applicator: water foxtail
# Source text: as §1
# [5] = test system: Crabgrass; experiment: Weed control efficacy of glufosinate applied with the applicator: crabgrass
# Source text: as §1
# [6] = 0.36% applied at 15 ml/m^2, applicator of the disclosure
# [7] = 0.56% applied at 10 ml/m^2, applicator of the disclosure
smiles,measurement,setting,value
"CP(=O)(O)CCC(N)C(=O)O (racemic) [glufosinate, glufosinate ammonium]",Control %: Max weed efficacy,[1]; [6],92%
same,Control %: Max weed efficacy,[1]; [7],99%
same,Control %: Max weed efficacy,[2]; [6],76%
same,Control %: Max weed efficacy,[2]; [7],73%
same,Control %: Max weed efficacy,[3]; [6],59%
same,Control %: Max weed efficacy,[3]; [7],55%
same,Control %: Max weed efficacy,[4]; [6],96%
same,Control %: Max weed efficacy,[4]; [7],92%
same,Control %: Max weed efficacy,[5]; [6],82%
same,Control %: Max weed efficacy,[5]; [7],81%
